# Molecular target: MtKatG (Mycobacterium tuberculosis, UniProt P9WIE5)
# Sequence (P9WIE5 whole entry): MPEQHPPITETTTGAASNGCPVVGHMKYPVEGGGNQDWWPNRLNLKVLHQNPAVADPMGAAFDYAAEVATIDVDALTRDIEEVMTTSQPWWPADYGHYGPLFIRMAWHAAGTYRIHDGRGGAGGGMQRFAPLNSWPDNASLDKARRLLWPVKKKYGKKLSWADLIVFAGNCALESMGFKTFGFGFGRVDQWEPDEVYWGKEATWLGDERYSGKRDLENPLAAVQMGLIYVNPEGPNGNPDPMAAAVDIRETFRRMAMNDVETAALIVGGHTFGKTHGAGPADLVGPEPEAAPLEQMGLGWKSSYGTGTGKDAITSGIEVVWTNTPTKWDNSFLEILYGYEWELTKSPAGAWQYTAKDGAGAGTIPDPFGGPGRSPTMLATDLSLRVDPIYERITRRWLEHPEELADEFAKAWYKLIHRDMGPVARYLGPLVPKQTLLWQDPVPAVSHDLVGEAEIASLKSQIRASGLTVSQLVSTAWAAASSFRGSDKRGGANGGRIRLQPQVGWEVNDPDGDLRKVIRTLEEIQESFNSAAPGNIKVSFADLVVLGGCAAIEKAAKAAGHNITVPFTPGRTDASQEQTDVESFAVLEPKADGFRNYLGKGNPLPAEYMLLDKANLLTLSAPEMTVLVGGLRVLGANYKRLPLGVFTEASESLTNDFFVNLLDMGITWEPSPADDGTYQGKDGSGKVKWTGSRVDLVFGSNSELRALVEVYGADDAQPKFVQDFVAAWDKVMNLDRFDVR
structure (smiles),measurement,value
CC(C)(C)OO [t-BuOOH],Km,19 ± 6 mM
